Reference: ChEMBL document CHEMBL4819157, “Synthesis and biological evaluation of novel ligustrazine-chalcone derivatives as potential anti-triple negative breast cancer agents” (Bioorg Med Chem Lett, 2021)
pIC50: −log10 of the molar value. The source made the active and inactive calls. No cut-off for these calls is given here.

Columns and labels:
HepG2 = test: Antiproliferation activity against human HepG2 cells assessed as reduction in cell viability after 72 hrs by CCK8 assay; type: functional, cell-based; conditions: HepG2, 72 h
MDA-MB-231 [1] = test: Induction of cell cycle arrest in human […] cells assessed as increase in accumulation of cells at G0/G1 phase at 0.5 to 2 times of IC50 after 48 hrs by propidium iodide staining-based flow cytometric analysis; type: functional
MDA-MB-231 [2] = test: Induction of apoptosis in human MDA-MB-231 cells assessed as necrotic cells at 2 times of IC50 by Annexin V-FITC/PI double staining based flow cytometry analysis (reference value: 0.02%); type: functional
MCF-10A = test: Cytotoxicity against human MCF-10A cells assessed as reduction in cell viability after 72 hrs by CCK8 assay; type: cell-based
MDA-MB-231 [3] = test: Antiproliferation activity against human MDA-MB-231 cells assessed as reduction in cell viability after 72 hrs by CCK8 assay; type: functional, cell-based; conditions: MDA-MB-231, 72 h
MDA-MB-231 [4] = test: Induction of cell cycle arrest in human […] cells assessed as decrease in accumulation of cells at G2/M phase at 0.5 to 2 times of IC50 after 48 hrs by propidium iodide staining-based flow cytometric analysis; type: functional
MCF7 [5] = test: Inhibition of colony formation in human MCF-7 cells at 0.25 to 2 times of IC50 concentration incubated for 48 hrs by plate colony counting assay; type: functional, cell-based
MCF7 [6] = test: Inhibition of colony formation in human MCF-7 cells at IC50 concentration upto 72 hrs by plate colony counting assay; type: functional, cell-based; conditions: time hrs <=72, TDE = time-dependent effect
MDA-MB-231 [7] = test: Induction of apoptosis in human MDA-MB-231 cells assessed as necrotic cells at IC50 by Annexin V-FITC/PI double staining based flow cytometry analysis (reference value: 0.02%); type: functional
MDA-MB-231 [8] = test: Induction of apoptosis in human MDA-MB-231 cells assessed as early apoptotic cells at IC50 by Annexin V-FITC/PI double staining based flow cytometry analysis (reference value: 6.64%); type: functional
MDA-MB-231 [9] = test: Induction of apoptosis in human MDA-MB-231 cells assessed as viable cells at IC50 by Annexin V-FITC/PI double staining based flow cytometry analysis (reference value: 93.34%); type: functional
MDA-MB-231 [10] = test: Induction of apoptosis in human MDA-MB-231 cells assessed as late apoptotic cells at IC50 by Annexin V-FITC/PI double staining based flow cytometry analysis (reference value: 0.00%); type: functional
MDA-MB-231 [11] = test: Induction of apoptosis in human MDA-MB-231 cells assessed as necrotic cells at 0.5 times of IC50 by Annexin V-FITC/PI double staining based flow cytometry analysis (reference value: 0.02%); type: functional
MDA-MB-231 [12] = test: Induction of apoptosis in human MDA-MB-231 cells assessed as late apoptotic cells at 2 times of IC50 by Annexin V-FITC/PI double staining based flow cytometry analysis (reference value: 0.00%); type: functional
MCF7 [13] = test: Inhibition of cell migration in human MCF-7 cells 0.5 to 2 times of IC50 incubated up to 48 hrs by scratch wound healing assay; type: functional, cell-based; conditions: time hrs <=48
MDA-MB-231 [14] = test: Induction of cell cycle arrest in human […] cells assessed as decrease in accumulation of cells at S phase at 0.5 to 2 times of IC50 after 48 hrs by propidium iodide staining-based flow cytometric analysis; type: functional
MCF7 [15] = test: Antiproliferation activity against human MCF-7 cells assessed as reduction in cell viability after 72 hrs by CCK8 assay; type: functional, cell-based; conditions: MCF7, 72 h
HUVEC = test: Cytotoxicity against human HUVEC cells assessed as reduction in cell viability after 72 hrs by CCK8 assay; type: cell-based
MDA-MB-231 [16] = test: Induction of apoptosis in human MDA-MB-231 cells assessed as early apoptotic cells at 0.5 times of IC50 by Annexin V-FITC/PI double staining based flow cytometry analysis (reference value: 6.64%); type: functional
A549 = test: Antiproliferation activity against human A549 cells assessed as reduction in cell viability after 72 hrs by CCK8 assay; type: functional, cell-based; conditions: A549, 72 h
MDA-MB-231 [17] = test: Induction of apoptosis in human MDA-MB-231 cells assessed as viable cells at 0.5 times of IC50 by Annexin V-FITC/PI double staining based flow cytometry analysis (reference value: 93.34%); type: functional
MDA-MB-231 [18] = test: Induction of apoptosis in human MDA-MB-231 cells assessed as early apoptotic cells at 2 times of IC50 by Annexin V-FITC/PI double staining based flow cytometry analysis (reference value: 6.64%); type: functional
[19] = Antitumour activity against human MDA-MB-468 cells xenografted in mouse assessed as reduction in Ki67 positive cells at 50 mg/kg, by immunohistochemical analysis (reference value: 76.50 +/- 5.28%); type: functional, MDA-MB-231; parameters: scale not given: the % may be the effect or the level left
MDA-MB-231 [20] = test: Induction of apoptosis in human MDA-MB-231 cells assessed as viable cells at 2 times of IC50 by Annexin V-FITC/PI double staining based flow cytometry analysis (reference value: 93.34%); type: functional
MDA-MB-231 [21] = test: Induction of apoptosis in human MDA-MB-231 cells assessed as late apoptotic cells at 0.5 times of IC50 by Annexin V-FITC/PI double staining based flow cytometry analysis (reference value: 0.00%); type: functional
MDA-MB-231 [22] = test: Inhibition of colony formation in human MDA-MB-231 cells at 0.25 to 2 times of IC50 concentration incubated for 48 hrs by plate colony counting assay; type: functional, cell-based
[23] = Antitumour activity against human MDA-MB-468 cells xenografted in mouse assessed as reduction in Ki67 positive cells at 25 mg/kg, by immunohistochemical analysis (reference value: 76.50 +/- 5.28%); type: functional, MDA-MB-231; parameters: scale not given: the % may be the effect or the level left
[24] = Antitumour activity against human MDA-MB-468 cells xenografted in mouse assessed as reduction in Ki67 positive cells at 75 mg/kg, by immunohistochemical analysis (reference value: 76.50 +/- 5.28%); type: functional, MDA-MB-231; parameters: scale not given: the % may be the effect or the level left
MDA-MB-231 [25] = test: Inhibition of cell migration in human MDA-MB-231 cells 0.5 to 2 times of IC50 incubated up to 48 hrs by scratch wound healing assay; type: functional, cell-based; conditions: time hrs <=48
MDA-MB-231 [26] = test: Inhibition of colony formation in human MDA-MB-231 cells at IC50 concentration upto 72 hrs by plate colony counting assay; type: functional, cell-based; conditions: time hrs <=72, TDE = time-dependent effect
[27] = Toxicity in mouse xenografted with human MDA-MB-468 cells assessed as effect on body weight at 25 to 75 mg/kg; type: organism-based; conditions: in vivo, dose 25-75 mg/kg

COc1ccc(C(=O)Nc2ccc(C(=O)/C=C/c3nc(C)c(C)nc3C)cc2)cc1
pIC50 (HepG2): 5.92
Activity (MDA-MB-231 [1]): Active
Activity (MDA-MB-231 [2]): 2.15%
pIC50 (MCF-10A): 4.22
pIC50 (MDA-MB-231 [3]): 5.80
Activity (MDA-MB-231 [4]): Active
inhibition (MCF7 [5]): Dose-Dependent Effect
inhibition (MCF7 [6]): Tde
Activity (MDA-MB-231 [7]): 2.89%
Activity (MDA-MB-231 [8]): 43.98%
Activity (MDA-MB-231 [9]): 44.51%
Activity (MDA-MB-231 [10]): 8.62%
Activity (MDA-MB-231 [11]): 1.54%
Activity (MDA-MB-231 [12]): 15.92%
inhibition (MCF7 [13]): Dose-Dependent Effect
Activity (MDA-MB-231 [14]): Active
pIC50 (MCF7 [15]): 5.85
pIC50 (HUVEC): 4.53
Activity (MDA-MB-231 [16]): 25.14%
pIC50 (A549): 5.38
Activity (MDA-MB-231 [17]): 72.66%
Activity (MDA-MB-231 [18]): 50.96%
Activity [19]: 11.29%
Activity (MDA-MB-231 [20]): 30.97%
Activity (MDA-MB-231 [21]): 0.65%
inhibition (MDA-MB-231 [22]): Dose-Dependent Effect
Activity [23]: 19.51%
Activity [24]: 8.95%
inhibition (MDA-MB-231 [25]): Dose-Dependent Effect
inhibition (MDA-MB-231 [26]): Tde
Activity [27]: Non-Toxic

COc1ccc(C(=O)Nc2ccc(C(=O)/C=C/c3nc(C)c(C)nc3C)cc2)cc1OC
pIC50 (HepG2): 5.59
pIC50 (MDA-MB-231 [3]): 5.47
pIC50 (MCF7 [15]): 5.78
pIC50 (A549): 5.30

Cc1ccc(C(=O)Nc2ccc(C(=O)/C=C/c3nc(C)c(C)nc3C)cc2)cc1
pIC50 (HepG2): 5.26
pIC50 (MDA-MB-231 [3]): 5.75
pIC50 (MCF7 [15]): 5.93
pIC50 (A549): 5.00

Cc1nc(C)c(/C=C/C(=O)c2ccc(NC(=O)c3ccc(F)cc3F)cc2)nc1C
pIC50 (HepG2): 5.52
pIC50 (MDA-MB-231 [3]): 5.75
pIC50 (MCF7 [15]): 5.79
pIC50 (A549): 5.61

Cc1nc(C)c(/C=C/C(=O)c2ccc(NC(=O)c3ccccc3)cc2)nc1C
pIC50 (HepG2): 5.88
pIC50 (MDA-MB-231 [3]): 5.74
pIC50 (MCF7 [15]): 6.00
pIC50 (A549): 5.14

O=c1[nH]cc(F)c(=O)[nH]1 [FLUOROURACIL]
pIC50 (HepG2): 5.53
pIC50 (MDA-MB-231 [3]): 5.23
pIC50 (MCF7 [15]): 5.26
pIC50 (A549): 5.60

O=C(/C=C/c1ccc(O)cc1)c1ccc(O)cc1O [ISOLIQUIRITIGENIN]
pIC50 (HepG2): 4.56
pIC50 (MDA-MB-231 [3]): 4.96
pIC50 (MCF7 [15]): 4.75
pIC50 (A549): 4.28

Cc1nc(C)c(/C=C/C(=O)c2ccc(NC(=O)c3ccccc3F)cc2)nc1C
pIC50 (HepG2): 5.69
pIC50 (MDA-MB-231 [3]): 5.70
pIC50 (MCF7 [15]): 5.90
pIC50 (A549): 5.13

Cc1nc(C)c(C)nc1C [LIGUSTRAZINE]
pIC50 (HepG2): 4.42
pIC50 (MDA-MB-231 [3]): 4.69
pIC50 (MCF7 [15]): 4.53
pIC50 (A549): 4.44

COc1cc2nccc(Oc3ccc(NC(=O)C4(C(=O)Nc5ccc(F)cc5)CC4)cc3)c2cc1OC [CABOZANTINIB]
pIC50 (HepG2): 4.81
pIC50 (MDA-MB-231 [3]): 4.71
pIC50 (MCF7 [15]): 4.85
pIC50 (A549): 4.82

COc1cc(OC)cc(C(=O)Nc2ccc(C(=O)/C=C/c3nc(C)c(C)nc3C)cc2)c1
pIC50 (HepG2): 4.96
pIC50 (MDA-MB-231 [3]): 4.94
pIC50 (MCF7 [15]): 5.20
pIC50 (A549): 4.99

Cc1nc(C)c(/C=C/C(=O)c2ccc(NC(=O)c3ccc(F)cc3)cc2)nc1C
pIC50 (HepG2): 5.65
pIC50 (MCF-10A): 4.37
pIC50 (MDA-MB-231 [3]): 5.78
inhibition (MCF7 [5]): Dose-Dependent Effect
inhibition (MCF7 [6]): Tde
inhibition (MCF7 [13]): Dose-Dependent Effect
pIC50 (MCF7 [15]): 5.81
pIC50 (HUVEC): 4.49
pIC50 (A549): 5.35
inhibition (MDA-MB-231 [22]): Dose-Dependent Effect
inhibition (MDA-MB-231 [25]): Dose-Dependent Effect
inhibition (MDA-MB-231 [26]): Tde

COc1cccc(OC)c1C(=O)Nc1ccc(C(=O)/C=C/c2nc(C)c(C)nc2C)cc1
pIC50 (HepG2): 5.47
pIC50 (MDA-MB-231 [3]): 5.41
pIC50 (MCF7 [15]): 5.61
pIC50 (A549): 5.07

COc1cc(C(=O)Nc2ccc(C(=O)/C=C/c3nc(C)c(C)nc3C)cc2)cc(OC)c1OC
pIC50 (HepG2): 5.31
pIC50 (MDA-MB-231 [3]): 5.32
pIC50 (MCF7 [15]): 5.56
pIC50 (A549): 5.13
